Values quoted from earlier work in article PMC6151732, “A New Noncanonical Anionic Peptide That Translocates a Cellular Blood–Brain Barrier Model” (Molecules : A Journal of Synthetic Chemistry and Natural …, 2017).

Test system: brain
Protocol: Dengue virus type-2 capsid (DEN2C) protein-derived membrane-active peptides have been thoroughly studied by our group. […] An additional study was performed using the four α-helical domains of the DEN2C protein (α1, α2, α3 and α4) to identify trans-BBB peptides. […] PepH3, a hydrophobic peptide, is able to transcytose across the cell, while other peptides accumulate inside the endothelial membrane ...

In the case of AGILKRW [PepH3], the Brain uptake is given as “high brain uptake”.
